We go through two substances from patent US20040086965A1, “Casein peptide fragments with growth-influencing activity on cell cultures” (priority 2000, published 2004).

This assay has as its system IPLB-Sf-21 cells. The assay is described as follows: Determination of the biological activity of the peptides: cell count of serum-weaned IPLB-Sf-21 cultures after four days with peptide. Particulars: for Rel. yield: IPLB-Sf-21, TC100 medium, 4 days; for peptide concentration at which the maximum growth-promoting effect was achieved: serum-free TC100 medium. Format: cell-based, Spodoptera frugiperda. As to the method:
IPLB-Sf-21 cells (ACC1 19, DSMZ in Braunschweig, Germany) were obtained from Dr. Victor Romanowski (Instituto de Bioquímica y Biología Molecular, Facultad de Ciencias Exactas, Universidad Nacional de la Plata, República Argentina) and maintained at 28° C. in TC-100 medium (Gibco/Life Technologies, Grand Island, N.Y., USA) containing 10% foetal calf serum (FCS, SIGMA, St. Louis, Mo., USA).
IPLB-Sf-21 cells were sown at a starting density of 5×10^4 cells in 1 ml of culture medium (TC-100+10% FCS) in the individual wells of 24-well culture plates. The plates were incubated at 27° C. for two days in a humidified chamber. During the following two days, the cultures were weaned off the serum additive by replacing the medium several times with pure TC100 medium and were then provided with the peptides or peptide fractions at various concentrations. Control cultures were cultivated in pure TC100 medium.
Four days later, the cells were harvested by being scraped off carefully. The cell count per culture well was determined by counting in a Neubauer chamber with an inverted microscope. The Neubauer chamber had two regions for counting. Each sample was counted three times in each of the two regions (six values per sample).

As for Ac-HQPHQPLPPT-OH [Decapeptide], the Rel. yield is 1.051 (Decapeptide concentration 0.01 μg/ml, cell yield relative to cultures without FCS); 1.182 (Decapeptide concentration 0.1 μg/ml, cell yield relative to cultures without FCS); 1.272 (Decapeptide concentration 1 μg/ml, cell yield relative to cultures without FCS); 1.175 (Decapeptide concentration 10 μg/ml, cell yield relative to cultures without FCS); 0.866 (Decapeptide concentration 100 μg/ml, cell yield relative to cultures without FCS). The “peptide concentration at which the maximum growth-promoting effect was achieved” value (IPLB-Sf-21 cells) was 1 µg/mL. Besides, for the setting “concentrations higher than 1 μg/ml, IPLB-Sf-21 cells”, the “effect of higher concentrations on cell growth” value is reported as “growth inhibition”.

Regarding AC-HQP-OH [Tripeptide], the “peptide concentration at which the maximum growth-promoting effect was achieved” value (IPLB-Sf-21 cells) stood at 0.1 µg/mL. Moreover, the Rel. yield (Tripeptide concentration 0.01 μg/ml, cell yield relative to cultures without peptide and without FCS) was 1.251; the Rel. yield (Tripeptide concentration 0.1 μg/ml, cell yield relative to cultures without peptide and without FCS) stood at 1.345; the Rel. yield (Tripeptide concentration 1 μg/ml, cell yield relative to cultures without peptide and without FCS) turned out to be 1.101; the Rel. yield (Tripeptide concentration 10 μg/ml, cell yield relative to cultures without peptide and without FCS) is on record as 1.030; the Rel. yield (Tripeptide concentration 100 μg/ml, cell yield relative to cultures without peptide and without FCS) is 0.826. In addition, for the setting “very high concentrations, IPLB-Sf-21 cells”, the “concentrations resulting in growth inhibition” value was greater than 10 µg/mL.
